Results: publication PMC8175350, “Drug repurposing screens identify chemical entities for the development of COVID-19 interventions” (Nature Communications, 2021)
Counter-ions that a name gives are not always drawn. Like-named read-outs stand apart in the source and are kept apart here.

What was measured:
[1] = system: SARS-CoV-2; experiment: microbe, parasite or virus in culture; format: cell-based; settings: for Emax: Severe acute respiratory syndrome coronavirus 2, HeLa-ACE2, 24 h, read-out: HeLa-ACE2 CoV-2 Sinf Average
[2] = Uninfected HeLa-ACE2 24 h live/dead cytotoxicity counter screen; format: cell-based, human; settings: human, uninfected HeLa-ACE2 cells
[3] = system: SARS-CoV-2; experiment: microbe, parasite or virus in culture; format: cell-based; settings: for Emax: Severe acute respiratory syndrome coronavirus 2, Calu-3, 48 h, read-out: Calu-3 CoV-2 Sinf Average
[4] = system: HeLa-ACE2 cells; experiment: cells; settings: Homo sapiens; for Emax: HeLa-ACE2, 24 h, read-out: HeLa-ACE2 cell count Sinf Average
[5] = system: Calu-3 cells; experiment: cells; settings: Homo sapiens; for Emax: Calu-3, 48 h, read-out: Calu-3 cell count Sinf Average
[6] = in vitro; settings: human
[7] = cited from earlier work
[8] = system: HeLa-ACE2 cells; experiment: Uninfected HeLa-ACE2 24 h live/dead cytotoxicity counter screen; format: cell-based, human
[9] = Uninfected Calu-3 48 h Cell-Titer Glo cytotoxicity counter screen; settings: human, uninfected Calu-3 cells
[10] = system: Calu-3 cells; experiment: as above
[11] = system: SARS-CoV-2; experiment: microbe, parasite or virus in culture; format: cell-based; settings: for Emax: Severe acute respiratory syndrome coronavirus 2, HeLa-ACE2, 10 h, curve plateau at infinite concentration, read-out: HeLa-ACE2 TOA CoV-2 Sinf Average; for EC50: read-out: HeLa-ACE2 TOA CoV-2 EC50 GeoMean
[12] = system: HeLa-ACE2 cells; experiment: cells; format: cell-based, human; settings: Homo sapiens, HeLa-ACE2; read-out: HeLa-ACE2 TOA cell count EC50 GeoMean
[13] = HepG2 72 h CellTiter-Glo cytotoxicity; settings: human, HepG2 cells
[14] = system: HepG2; experiment: HepG2 72 h CellTiter-Glo cytotoxicity; settings: 72 h
[15] = HEK293T 72 h CellTiter-Glo cytotoxicity; settings: human, HEK293T cells
[16] = system: HEK293T; experiment: HEK293T 72 h CellTiter-Glo cytotoxicity; settings: 72 h
[17] = system: SARS-CoV-2; format: cell-based
[18] = system: HeLa-ACE2 cells; experiment: Total cell count in the HeLa-ACE2 TOA assay; format: cell-based; settings: Homo sapiens
Text: Supplement 41467_2021_23328_MOESM3_ESM.xlsx, sheet "Table S1" | column: HeLa-ACE2 TOA cell count

[19] = Severe acute respiratory syndrome coronavirus 2, HeLa-ACE2, reconfirmed hits, read-out: HeLa-ACE2 SARS-CoV-2 EC50
[20] = Severe acute respiratory syndrome coronavirus 2, HeLa-ACE2, unrounded geometric mean, read-out: HeLa-ACE2 CoV-2 EC50 GeoMean
[21] = reconfirmed hits, read-out: HeLa-ACE2 Uninf. cells CC50
[22] = unrounded geometric mean, read-out: HeLa-ACE2 uninfected cytotoxicity CC50 GeoMean
[23] = curve-fit effect at infinite concentration, average
[24] = Severe acute respiratory syndrome coronavirus 2, Calu-3, reconfirmed hits, read-out: Calu-3 SARS-CoV-2 EC50
[25] = Severe acute respiratory syndrome coronavirus 2, Calu-3, unrounded geometric mean, read-out: Calu-3 CoV-2 EC50 GeoMean
[26] = HeLa-ACE2, read-out: HeLa-ACE2 cell count EC50 GeoMean, unrounded geometric mean
[27] = Calu-3, read-out: Calu-3 cell count EC50 GeoMean, unrounded geometric mean
[28] = Calu-3 Uninf. cells CC50 (µM), reconfirmed hits
[29] = Calu-3 uninfected cytotoxicity CC50 GeoMean, unrounded geometric mean
[30] = read-out: Approx. Cmax, human, oral, ref [36],[37],[42],[43] as in column Refs.
[31] = curve plateau at infinite concentration
[32] = detail block, read-out: HeLa-ACE2 uninfected cytotoxicity CC50 GeoMean
[33] = Severe acute respiratory syndrome coronavirus 2, Calu-3, detail block, read-out: Calu-3 CoV-2 EC50 GeoMean
[34] = Severe acute respiratory syndrome coronavirus 2, HeLa-ACE2, detail block
[35] = HeLa-ACE2, read-out: HeLa-ACE2 cell count EC50 GeoMean, detail block
[36] = Calu-3, read-out: Calu-3 cell count EC50 GeoMean, detail block
[37] = Calu-3 uninfected cytotoxicity CC50 GeoMean, detail block
[38] = Severe acute respiratory syndrome coronavirus 2, HeLa-ACE2, detail block, read-out: HeLa-ACE2 CoV-2 EC50 GeoMean
[39] = selectivity index, uninfected HeLa-ACE2 CC50 / SARS-CoV-2 EC50
[40] = selectivity index, uninfected Calu-3 CC50 / Calu-3 SARS-CoV-2 EC50

| SMILES | EC50 [1, 19] | CC50 at 24 h [2, 21] | EC50 [3, 24] | Emax [5] | Approx. t1/2 ([7]; human, ref [33]-[49]) | Emax [4] | Emax [1, 31] | CC50 at 24 h [2, 32] | HeLa-ACE2 uninfected cytotoxicity Sinf Average [8, 31] | EC50 [3, 33] | TOA:HeLa-ACE2 EC50 Ratio [11] | Emax [11] | EC50 [11, 34] | EC50 [12] | EC50 [4, 35] | CC50 at 72 h [13] | HepG2 72-hour cytotoxicity Sinf Average [14] | CC50 at 72 h [15] | HEK293T 72-hour cytotoxicty Sinf Average [16] | Calu-3 uninfected cytotoxicity Sinf Average [10, 31] | further results |
| --- | --- | --- | --- | --- | --- | --- | --- | --- | --- | --- | --- | --- | --- | --- | --- | --- | --- | --- | --- | --- | --- |
| C=Cc1cc(C(=O)Nc2ccc(C(=N)N)cc2)c(-c2ccc(C(=O)NCC3CC3)nc2C(=O)O)cc1OC [Avoralstat] | > 9600 nM | > 40 µM | 387 nM | 91% | 14 h | – | – | – | – | – | – | – | – | – | – | – | – | – | – | – | EC50 [1, 20]: > 9590 nM; CC50 at 24 h [2, 22]: > 39.8 µM; Emax [3, 23]: 88%; EC50 [3, 25]: 387 nM; EC50 [4, 26]: > 9.59 µM; EC50 [5, 27]: 0.57 µM; CC50 [6, 28]: > 30 µM; CC50 [6, 29]: > 29.9 µM; Cmax [7, 30]: 364 nM |
| COC(=O)[C@]12CCC(C)(C)C[C@H]1[C@H]1C(=O)C=C3[C@@]4(C)C=C(C#N)C(=O)C(C)(C)[C@@H]4CC[C@@]3(C)[C@]1(C)CC2 [Bardoxolone methyl] | 541 nM | 3.1 µM | 79 nM | 41% | 39 h | 101% | – | – | – | – | – | – | – | – | – | – | – | – | – | – | Emax [1, 23]: 100%; EC50 [1, 20]: 541 nM; CC50 at 24 h ([2]; uninfected cells, Fig. 2b group, read-out: HeLa-ACE2 CC50): ≤ 3 µM; CC50 at 24 h [2, 22]: 3.1 µM; HeLa-ACE2 uninfected cytotoxicity Sinf Average [8, 23]: -101%; Emax [3, 23]: 96%; EC50 [3, 25]: 79.4 nM; EC50 [4, 26]: 1.26 µM; EC50 [5, 27]: 0.116 µM; Cmax [7, 30]: 50 nM; CC50 at 48 h [9, 28]: 3.06 µM; CC50 at 48 h [9, 29]: 3.06 µM; Calu-3 uninfected cytotoxicity Sinf Average [10, 23]: -97% |
| COc1ccc2cc1Oc1ccc(cc1)C[C@H]1c3cc(c(OC)cc3CCN1C)Oc1c(OC)c(OC)cc3c1[C@H](C2)N(C)CC3 [Hanfangchin A] | – | – | – | – | – | 100% | 100% | > 18.9 µM | -99% | > 9980 nM | 7.993 | 100% | > 9.41 µM | > 9.59 µM | > 9.21 µM | 2.28 µM | -105% | 3.6 µM | -101% | -100% | HeLa-ACE2 SI [1]: > 16.08; EC50 ([1]; Severe acute respiratory syndrome coronavirus 2, HeLa-ACE2, read-out: HeLa-ACE2 CoV-2 EC50 GeoMean, detail block): 1180 nM; Calu-3 SI [3]: 1.53; Emax [3]: 87%; EC50 [5, 36]: > 9.98 µM; CC50 at 48 h [9, 37]: 15.2 µM |
| COC(=O)C1=C(C)NC(C)=C(C(=O)OCCN2CCN(C(c3ccccc3)c3ccccc3)CC2)C1c1cccc([N+](=O)[O-])c1 (stereo not shown) [Manidipine] | 6890 nM | > 17.1 µM | 5480 nM | – | 3 h | – | – | – | – | – | – | – | – | – | – | – | – | – | – | – | Synergy score with remdesivir (δ) ([17]; HeLa-ACE2): −4.73; CC50 at 48 h ([6]; Calu-3 Uninf. cells CC50 (µM)): > 30 µM; Cmax ([7]; human, in vivo, po): 10 nM |
| CC(C)(C)Cn1c(N)nc2ccc(-c3[nH]c(C(C)(C)C)nc3-c3ccc(F)cc3)nc21 [Ralimetinib mesylate/LY2228820, Ralimetinib mesylate] | 1870 nM | 27.4 µM | 3830 nM | 95% | 190 h | -60% | 100% | – | -99% | – | – | 100% | – | – | – | 19.8 µM | -100% | 20.3 µM | -100% | -97% | CC50 at 24 h ([2]; read-out: HeLa-ACE2 uninfected cytotoxicity CC50 GeoMean): 27.4 µM; Emax [3, 31]: 100%; EC50 ([11]; Severe acute respiratory syndrome coronavirus 2, HeLa-ACE2): 0.787 µM; HeLa-ACE2 synergy score with remdesivi [δ] ([17]; combination with remdesivir, synergy score δ): -0.846; Emax ([18]; HeLa-ACE2, 10 h, curve plateau at infinite concentration, read-out: HeLa-ACE2 TOA cell count Sinf Average): 55%; EC50 ([18]; HeLa-ACE2, read-out: HeLa-ACE2 TOA cell count EC50 GeoMean): > 4.43 µM; EC50 ([4]; HeLa-ACE2, read-out: HeLa-ACE2 cell count EC50 GeoMean): > 6.87 µM; EC50 ([5]; Calu-3, read-out: Calu-3 cell count EC50 GeoMean): 5.55 µM; Cmax ([7]; read-out: Approx. Cmax, human oral, ref [33]-[49]): 5000 nM; CC50 at 48 h [9, 28]: 13.8 µM; CC50 at 48 h ([9]; Calu-3 uninfected cytotoxicity CC50 GeoMean): 13.8 µM |
| COC(=O)[C@H]1[C@H]2C[C@@H]3c4[nH]c5cc(OC)ccc5c4CCN3C[C@H]2C[C@@H](OC(=O)c2cc(OC)c(OC)c(OC)c2)[C@@H]1OC [Reserpine] | – | – | – | 100% | – | – | 100% | > 36.4 µM | -100% | > 9980 nM | 0.542 | 100% | 2.99 µM | > 9.61 µM | > 9.6 µM | 33 µM | -100% | 11.7 µM | -100% | -100% | EC50 [1, 38]: > 5520 nM; HeLa-ACE2 SI [1, 39]: > 6.60; Emax [3, 31]: 100%; Calu-3 SI [3, 40]: 2.85; EC50 [5, 36]: > 9.98 µM; CC50 at 48 h [9, 37]: > 28.5 µM |
| CC(CN(C)C)CN1c2ccccc2CCc2ccccc21 (stereo not shown) [Trimipramine maleate] | – | – | – | – | – | – | 99% | 21.3 µM | -100% | > 9980 nM | 2.576 | 100% | 5.42 µM | > 9.59 µM | > 9.59 µM | 18.8 µM | -100% | 12.8 µM | -102% | -100% | EC50 [1, 38]: 2110 nM; HeLa-ACE2 SI [1, 39]: 10.11; Emax [3, 31]: 100%; Calu-3 SI [3, 40]: 2.90; EC50 [5, 36]: > 9.98 µM; CC50 at 48 h [9, 37]: > 29 µM |
| OCCN1CCN(CC/C=C2/c3ccccc3Sc3ccc(Cl)cc32)CC1 [Zuclopenthixol] | – | – | – | – | – | 100% | 100% | > 16.8 µM | -100% | > 9060 nM | 2.929 | 99% | 6.1 µM | > 9.59 µM | > 9.59 µM | 12.5 µM | -100% | 18.6 µM | -100% | -100% | EC50 [1, 38]: 2080 nM; HeLa-ACE2 SI [1, 39]: > 8.08; Emax [3, 31]: 100%; Calu-3 SI [3, 40]: 1.06; EC50 [5, 36]: > 9.98 µM; CC50 at 48 h [9, 37]: 9.6 µM |
